The text below walks through data of ChEMBL document CHEMBL5393453, “Compositions and methods of using the same for treatment of neurodegenerative and mitochondrial disease” (2021).

The series can be described thus: Cytotoxicity against human HeLa cells expressing YFP parkin assessed as highest safety dose by DAPI staining analysis. Format: toxicity, cell-based. Conditions: read-out: Activity.
`Fc1ccc2c(c1)OC[C@H](N1C[C@H]3COC[C@@H]3C1)[C@H]2Nc1ncnc2[nH]c(C(F)(F)F)cc12` (single isomer, unassigned): the MNTC was determined as 25 µM.
For the compound `CN1CCN([C@H]2CCc3ccccc3[C@@H]2Nc2ncnc3[nH]c(C(F)(F)F)cc23)CC1` (single isomer, unassigned), the MNTC stood at 25 µM.
Next, `c1ccc2c(c1)CC[C@@H](C1CCOCC1)[C@@H]2Nc1ncnc2[nH]c(C3CC3)cc12`: 25 µM; `C[C@@H]1CN([C@H]2CCc3ccccc3[C@@H]2Nc2ncnc3[nH]c(C4CC4)cc23)C[C@H](C)O1` (single isomer, unassigned): 25 µM; `FC(F)(F)c1cc2c(N[C@H]3c4ccccc4CC[C@@H]3C3CCOCC3)ncnc2[nH]1` (single isomer, unassigned): 25 µM.
For `CN1CCN([C@@H]2CCc3ccccc3[C@H]2Nc2ncnc3[nH]c(C(F)(F)F)cc23)CC1` (single isomer, unassigned), the MNTC amounted to 25 µM.
`C[C@@H]1CN([C@H]2COc3ccccc3[C@@H]2Nc2ncnc3[nH]c(C4CC4)cc23)CCO1`: the MNTC worked out at 25 µM.
`CO[C@@H]1CCN([C@H]2COc3ccccc3[C@@H]2Nc2ncnc3[nH]c(C4CC4)cc23)C1`: the MNTC was determined as 25 µM.
As for `CO[C@@H]1CCN([C@@H]2COc3ccccc3[C@H]2Nc2ncnc3[nH]c(C(F)(F)F)cc23)C1`, the MNTC came to 25 µM.
With `FC(F)(F)c1cc2c(N[C@@H]3c4ccccc4OC[C@H]3N3CCOCC3)ncnc2[nH]1`, the MNTC stood at 25 µM.
Consider `C[C@@H]1COCCN1[C@@H]1CCc2ccccc2[C@H]1Nc1ncnc2[nH]c(C(F)(F)F)cc12` (single isomer, unassigned), for which the MNTC came out at 25 µM.
Regarding `Fc1ccc2c(c1)OC[C@H](N1C[C@H]3COC[C@H]3C1)[C@H]2Nc1ncnc2[nH]c(C(F)(F)F)cc12` (single isomer, unassigned), the MNTC was determined as 25 µM.
For `FC(F)(F)c1cc2c(N[C@H]3c4ccccc4CC[C@H]3C3CCOCC3)ncnc2[nH]1`, the MNTC was 25 µM.
Take `FC(F)(F)c1cc2c(N[C@@H]3c4ccccc4CC[C@H]3C3CCOCC3)ncnc2[nH]1` (single isomer, unassigned): the MNTC is 25 µM.
For `c1ccc2c(c1)CC[C@@H](C1CCOCC1)[C@H]2Nc1ncnc2[nH]c(C3CC3)cc12`, the MNTC was determined as 25 µM.
With `C[C@@H]1CN([C@H]2COc3cc(F)ccc3[C@@H]2Nc2ncnc3[nH]c(C(F)(F)F)cc23)CCO1`, the MNTC stood at 25 µM.
With `C[C@@H]1CN([C@@H]2CCc3ccccc3[C@H]2Nc2ncnc3[nH]c(C(F)(F)F)cc23)CCO1` (single isomer, unassigned), the MNTC came out at 25 µM.
In the case of `FC(F)(F)c1cc2c(N[C@@H]3c4ccccc4CC[C@@H]3C3CCOCC3)ncnc2[nH]1`, the MNTC amounted to 25 µM.
On to `FC(F)(F)c1cc2c(N[C@H]3c4ccccc4OC[C@H]3N3CCOCC3)ncnc2[nH]1`, for which the MNTC was found to be 25 µM.
Next, `OC(C1CCOCC1)[C@H]1COc2ccccc2[C@@H]1Nc1ncnc2[nH]c(C(F)(F)F)cc12` (stereo not given in full): 25 µM.
For `C[C@@H]1CN([C@@H]2COc3cc(F)ccc3[C@H]2Nc2ncnc3[nH]c(C4CC4)cc23)CCO1`, the MNTC was 25 µM.
Consider `COC[C@H]1CCCN1[C@H]1COc2ccccc2[C@@H]1Nc1ncnc2[nH]c(C(F)(F)F)cc12` (single isomer, unassigned), for which the MNTC is 25 µM.
Turning to `C[C@@H]1CN([C@@H]2CCc3ccccc3[C@H]2Nc2ncnc3[nH]c(C(F)(F)F)cc23)C[C@H](C)O1` (single isomer, unassigned), the MNTC amounted to 25 µM.
Turning to `c1ccc2c(c1)OC[C@@H](N1CCOCC1)[C@H]2Nc1ncnc2[nH]c(C3CC3)cc12`, the MNTC came out at 25 µM.
For the compound `c1ccc2c(c1)OC[C@@H](N1C[C@H]3COC[C@H]3C1)[C@@H]2Nc1ncnc2[nH]c(C3CC3)cc12` (single isomer, unassigned), the MNTC turned out to be 25 µM.
For the compound `Fc1ccc2c(c1)OC[C@H](N1C[C@@H]3COC[C@H]3C1)[C@H]2Nc1ncnc2[nH]c(C(F)(F)F)cc12` (single isomer, unassigned), the MNTC stood at 25 µM.
Consider `Fc1ccc2c(c1)OC[C@H](N1C[C@H]3COC[C@H]3C1)[C@H]2Nc1ncnc2[nH]c(C3CC3)cc12` (single isomer, unassigned), for which the MNTC was found to be 25 µM.
As to `FC(F)(F)c1cc2c(N[C@H]3c4ccccc4OC[C@H]3C3CCOCC3)ncnc2[nH]1`, the MNTC came to 8.3 µM.
To `Fc1ccc2c(c1)OC[C@@H](N1CCOCC1)[C@@H]2Nc1ncnc2[nH]c(C3CC3)cc12` (single isomer, unassigned) belongs 25 µM; to `Fc1ccc2c(c1)OC[C@H](N1CCOCC1)[C@H]2Nc1ncnc2[nH]c(C3CC3)cc12`, 25 µM.
On to `COC[C@@H]1CCCN1[C@H]1COc2ccccc2[C@@H]1Nc1ncnc2[nH]c(C(F)(F)F)cc12` (single isomer, unassigned), for which the MNTC is 25 µM.
In the case of `OC(C1CCOCC1)C1COc2ccccc2C1Nc1ncnc2[nH]c(C(F)(F)F)cc12` (single isomer, unassigned), the MNTC worked out at 25 µM.
With `C[C@H]1CN([C@@H]2COc3ccccc3[C@H]2Nc2ncnc3[nH]c(C4CC4)cc23)CCO1`, the MNTC is 25 µM.
Next, `C[C@@H]1CN([C@@H]2CCc3ccccc3[C@H]2Nc2ncnc3[nH]c(C4CC4)cc23)C[C@H](C)O1` (single isomer, unassigned): 25 µM; `CO[C@H]1CCN([C@@H]2COc3ccccc3[C@H]2Nc2ncnc3[nH]c(C(F)(F)F)cc23)C1`: 25 µM; `C[C@H]1CN([C@H]2COc3cc(F)ccc3[C@@H]2Nc2ncnc3[nH]c(C4CC4)cc23)CCO1`: 25 µM.
Regarding `C[C@H]1CN([C@@H]2COc3cc(F)ccc3[C@H]2Nc2ncnc3[nH]c(C(F)(F)F)cc23)CCO1`, the MNTC stood at 25 µM.
As for `C[C@@H]1CN([C@@H]2COc3cc(F)ccc3[C@H]2Nc2ncnc3[nH]c(C(F)(F)F)cc23)CCO1`, the MNTC came out at 25 µM.
Turning to `Fc1cccc2c1CC[C@H](N1C[C@H]3COC[C@H]3C1)[C@H]2Nc1ncnc2[nH]c(C3CC3)cc12` (single isomer, unassigned), the MNTC was found to be 25 µM.
For the compound `c1ccc2c(c1)OC[C@H](C1CCOCC1)[C@@H]2Nc1ncnc2[nH]c(C3CC3)cc12`, the MNTC came out at 25 µM.
To `Fc1cccc2c1CC[C@H](N1C[C@H]3COC[C@H]3C1)[C@H]2Nc1ncnc2[nH]c(C(F)(F)F)cc12` (single isomer, unassigned) belongs 25 µM.
For the compound `C[S@@](=N)(=O)C1CN(C2COc3ccccc3C2Nc2ncnc3[nH]c(C(F)(F)F)cc23)C1` (single isomer, unassigned), the MNTC came to 25 µM.
Consider `C[C@H]1CN([C@H]2COc3ccccc3[C@@H]2Nc2ncnc3[nH]c(C(F)(F)F)cc23)CCO1`, for which the MNTC was 25 µM.
In the case of `OC[C@@H]1CN([C@H]2COc3ccccc3[C@@H]2Nc2ncnc3[nH]c(C(F)(F)F)cc23)CCO1` (single isomer, unassigned), the MNTC was found to be 25 µM.
To `c1ccc2c(c1)CC[C@@H](N1C[C@H]3COC[C@H]3C1)[C@@H]2Nc1ncnc2[nH]c(C3CC3)cc12` (single isomer, unassigned) belongs 25 µM; to `c1ccc2c(c1)OC[C@@H](C1CCOCC1)[C@H]2Nc1ncnc2[nH]c(C3CC3)cc12`, 25 µM; to `C[C@H]1CN([C@@H]2CCc3ccccc3[C@H]2Nc2ncnc3[nH]c(C4CC4)cc23)CCO1` (single isomer, unassigned), 25 µM.
On to `C[C@H]1COCCN1[C@@H]1CCc2ccccc2[C@H]1Nc1ncnc2[nH]c(C(F)(F)F)cc12` (single isomer, unassigned), for which the MNTC worked out at 25 µM.
On to `Fc1ccc2c(c1)CC[C@@H](N1C[C@@H]3COC[C@H]3C1)[C@@H]2Nc1ncnc2[nH]c(C(F)(F)F)cc12`, for which the MNTC was found to be 25 µM.
Next, `[2H]C([2H])([2H])OC1CN([C@@H]2COc3ccccc3[C@H]2Nc2ncnc3[nH]c(C(F)(F)F)cc23)C1`: 25 µM.
As to `C[C@@H]1CN([C@H]2CCc3ccccc3[C@@H]2Nc2ncnc3[nH]c(C(F)(F)F)cc23)C[C@H](C)O1` (single isomer, unassigned), the MNTC is 25 µM.
Turning to `OC[C@H]1CN([C@H]2COc3ccccc3[C@@H]2Nc2ncnc3[nH]c(C(F)(F)F)cc23)CCO1` (single isomer, unassigned), the MNTC was determined as 25 µM.
For `C[C@@H]1COCCN1[C@H]1CCc2ccccc2[C@@H]1Nc1ncnc2[nH]c(C3CC3)cc12` (single isomer, unassigned), the MNTC came to 2.8 µM.
For the compound `C[C@H]1CN([C@H]2COc3cc(F)ccc3[C@@H]2Nc2ncnc3[nH]c(C(F)(F)F)cc23)CCO1`, the MNTC is 25 µM.
For `Fc1ccc2c(c1)CC[C@@H](N1CCOCC1)[C@@H]2Nc1ncnc2[nH]c(C3CC3)cc12`, the MNTC worked out at 25 µM.
To `FC(F)(F)c1cc2c(N[C@H]3c4ccccc4OC[C@@H]3N3CCOCC3)ncnc2[nH]1` (single isomer, unassigned) belongs 25 µM.
Regarding `C[C@@H]1CN([C@H]2COc3ccccc3[C@@H]2Nc2ncnc3[nH]c(C(F)(F)F)cc23)CCO1`, the MNTC stood at 25 µM.
For `FC(F)(F)c1cc2c(N[C@H]3c4ccccc4OC[C@@H]3C3CCCOC3)ncnc2[nH]1` (single isomer, unassigned), the MNTC was 25 µM.
As to `C[C@H]1CN([C@@H]2CCc3ccccc3[C@H]2Nc2ncnc3[nH]c(C(F)(F)F)cc23)CCO1` (single isomer, unassigned), the MNTC worked out at 25 µM.
To `CS(=N)(=O)C1CN(C2COc3ccccc3C2Nc2ncnc3[nH]c(C(F)(F)F)cc23)C1` (stereo not given) belongs 25 µM; to `Fc1cccc2c1CC[C@@H](N1C[C@H]3COC[C@H]3C1)[C@@H]2Nc1ncnc2[nH]c(C(F)(F)F)cc12` (single isomer, unassigned), 25 µM.
Turning to `CO[C@H]1CCN([C@@H]2COc3ccccc3[C@H]2Nc2ncnc3[nH]c(C4CC4)cc23)C1`, the MNTC was determined as 25 µM.
Regarding `c1ccc2c(c1)CC[C@H](C1CCOCC1)[C@@H]2Nc1ncnc2[nH]c(C3CC3)cc12`, the MNTC was 25 µM.
For the compound `C[C@@H]1CN([C@@H]2CCc3ccccc3[C@H]2Nc2ncnc3[nH]c(C4CC4)cc23)CCO1` (single isomer, unassigned), the MNTC is 25 µM.
To `FC(F)OC1CN([C@H]2COc3ccccc3[C@@H]2Nc2ncnc3[nH]c(C(F)(F)F)cc23)C1` belongs 25 µM.
